In ChEMBL document CHEMBL1153754, “1-Aryl-3,4-dihydroisoquinoline inhibitors of JNK3” (Bioorg Med Chem Lett, 2009):

Experiments:
[1] = target: T1, Mitogen-activated protein kinase 14 (Homo sapiens, UniProt Q16539); experiment: Inhibition of histidine-tagged human recombinant p38alpha after 120 mins by TR-FRET assay
[2] = target: T2, Mitogen-activated protein kinase 10 (Homo sapiens, UniProt P53779); experiment: Inhibition of N-terminal His(6)-tagged truncated human JNK3 transfected in baculovirus expression system by fluorescence anisotropy
[3] = target: T1, Mitogen-activated protein kinase 14; experiment: Inhibition of N-terminal GST-tagged p38alpha expressed in Escherichia coli by fluorescence anisotropy
[4] = target: Serine/threonine-protein kinase PLK1 (Homo sapiens, UniProt P53350); experiment: Inhibition of PLK1
[5] = target: Mitogen-activated protein kinase kinase kinase 11 (Homo sapiens, UniProt Q16584); experiment: Inhibition of MLK3
[6] = target: Serine/threonine-protein kinase B-raf (Homo sapiens, UniProt P15056); experiment: Inhibition of B-Raf
[7] = target: Glycogen synthase kinase-3 beta (Homo sapiens, UniProt P49841); experiment: Inhibition of GSK3-beta
[8] = target: T3, Inhibitor of nuclear factor kappa-B kinase subunit beta (Homo sapiens, UniProt O14920); experiment: Inhibition of IKK-beta
T3 sequence (O14920 whole entry): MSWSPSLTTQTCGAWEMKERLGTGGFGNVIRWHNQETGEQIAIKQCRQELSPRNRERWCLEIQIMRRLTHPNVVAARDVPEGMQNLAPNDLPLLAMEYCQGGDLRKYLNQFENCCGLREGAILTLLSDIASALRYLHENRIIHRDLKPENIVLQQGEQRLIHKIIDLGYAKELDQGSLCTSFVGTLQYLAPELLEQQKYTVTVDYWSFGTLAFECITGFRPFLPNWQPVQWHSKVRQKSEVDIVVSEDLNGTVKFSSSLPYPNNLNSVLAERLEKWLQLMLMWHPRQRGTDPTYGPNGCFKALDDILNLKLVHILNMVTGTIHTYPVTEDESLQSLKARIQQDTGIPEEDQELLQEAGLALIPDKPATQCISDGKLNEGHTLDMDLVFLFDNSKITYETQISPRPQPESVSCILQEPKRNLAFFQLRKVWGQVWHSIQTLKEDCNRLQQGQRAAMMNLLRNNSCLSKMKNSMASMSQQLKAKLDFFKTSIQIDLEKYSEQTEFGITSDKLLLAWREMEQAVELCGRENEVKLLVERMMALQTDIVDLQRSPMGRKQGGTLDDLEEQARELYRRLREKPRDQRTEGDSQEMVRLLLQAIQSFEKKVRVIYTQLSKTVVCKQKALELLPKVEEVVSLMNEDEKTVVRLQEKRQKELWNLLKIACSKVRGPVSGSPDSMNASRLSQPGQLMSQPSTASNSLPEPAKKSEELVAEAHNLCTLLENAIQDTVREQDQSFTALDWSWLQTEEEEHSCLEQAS

[9] = target: T2, Mitogen-activated protein kinase 10; experiment: Inhibition of N-terminal histidine-tagged human full length JNK3 by radiometric filter binding assay
[10] = target: Mitogen-activated protein kinase 9 (Homo sapiens, UniProt P45984); experiment: Inhibition of N-terminal histidine-tagged human full length JNK2-alpha-2 by radiometric filter binding assay
[11] = target: Receptor tyrosine-protein kinase erbB-2 (Homo sapiens, UniProt P04626); experiment: Inhibition of ErbB2
[12] = target: Mitogen-activated protein kinase 1 (Homo sapiens, UniProt P28482); experiment: Inhibition of N-terminal GST-tagged human full length Erk2 by radiometric filter binding assay
[13] = target: Cyclin-dependent kinase 2 (Homo sapiens, UniProt P24941); experiment: Inhibition of CDK2
[14] = target: T4, Serine/threonine-protein kinase Sgk1 (Homo sapiens, UniProt O00141); experiment: Inhibition of SGK1
T4 sequence (O00141 whole entry): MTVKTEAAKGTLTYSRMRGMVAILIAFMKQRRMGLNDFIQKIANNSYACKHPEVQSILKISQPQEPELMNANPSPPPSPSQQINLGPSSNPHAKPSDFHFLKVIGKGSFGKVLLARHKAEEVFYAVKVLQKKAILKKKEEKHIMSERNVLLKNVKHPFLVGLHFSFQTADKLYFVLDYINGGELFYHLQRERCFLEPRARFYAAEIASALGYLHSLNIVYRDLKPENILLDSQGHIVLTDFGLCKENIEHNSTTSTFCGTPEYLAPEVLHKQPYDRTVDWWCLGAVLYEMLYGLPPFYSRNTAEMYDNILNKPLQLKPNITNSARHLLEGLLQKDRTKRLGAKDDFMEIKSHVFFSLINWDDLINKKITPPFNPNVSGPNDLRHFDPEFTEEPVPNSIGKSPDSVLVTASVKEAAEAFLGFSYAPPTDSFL

[15] = target: Macrophage colony-stimulating factor 1 receptor (Homo sapiens, UniProt P07333); experiment: Inhibition of c-Fms
[16] = target: T5, Mitogen-activated protein kinase 8 (Homo sapiens, UniProt P45983); experiment: Inhibition of N-terminal histidine-tagged human full length JNK1-alpha-1 by radiometric filter binding assay
[17] = target: T6, Inhibitor of nuclear factor kappa-B kinase subunit alpha (Homo sapiens, UniProt O15111); experiment: Inhibition of IKKalpha
T6 sequence (O15111 whole entry): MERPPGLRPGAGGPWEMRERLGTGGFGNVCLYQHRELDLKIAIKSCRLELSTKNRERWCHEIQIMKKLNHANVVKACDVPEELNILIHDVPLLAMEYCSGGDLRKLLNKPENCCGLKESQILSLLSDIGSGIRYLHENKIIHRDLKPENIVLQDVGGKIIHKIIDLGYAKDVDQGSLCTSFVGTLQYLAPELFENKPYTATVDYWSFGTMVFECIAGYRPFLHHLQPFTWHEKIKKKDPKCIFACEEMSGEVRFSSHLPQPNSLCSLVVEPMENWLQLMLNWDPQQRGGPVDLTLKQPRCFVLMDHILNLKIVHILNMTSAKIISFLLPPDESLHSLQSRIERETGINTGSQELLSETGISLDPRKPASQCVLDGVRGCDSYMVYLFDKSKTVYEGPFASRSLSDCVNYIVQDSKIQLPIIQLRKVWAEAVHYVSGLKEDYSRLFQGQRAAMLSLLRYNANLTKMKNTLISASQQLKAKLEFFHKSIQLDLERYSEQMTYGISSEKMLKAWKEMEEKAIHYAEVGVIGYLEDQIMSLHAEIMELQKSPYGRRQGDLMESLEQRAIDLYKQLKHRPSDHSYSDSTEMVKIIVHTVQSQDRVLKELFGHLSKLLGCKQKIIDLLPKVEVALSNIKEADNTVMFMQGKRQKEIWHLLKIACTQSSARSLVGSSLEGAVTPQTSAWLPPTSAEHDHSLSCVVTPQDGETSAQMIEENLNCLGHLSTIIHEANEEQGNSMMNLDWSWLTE

[18] = target: Rho-associated protein kinase 1 (Homo sapiens, UniProt Q13464); experiment: Inhibition of ROCK1
[19] = target: T2, Mitogen-activated protein kinase 10; experiment: Inhibition of JNK3 by high throughput screening
[20] = target: T5, Mitogen-activated protein kinase 8; experiment: Inhibition of JNK1 by high throughput screening
[21] = target: T1, Mitogen-activated protein kinase 14; experiment: Inhibition of p38alpha by high throughput screening
[22] = target: Tyrosine-protein kinase Lck (Homo sapiens, UniProt P06239)

T1 sequence (Q16539 whole entry, the tested form may be a part): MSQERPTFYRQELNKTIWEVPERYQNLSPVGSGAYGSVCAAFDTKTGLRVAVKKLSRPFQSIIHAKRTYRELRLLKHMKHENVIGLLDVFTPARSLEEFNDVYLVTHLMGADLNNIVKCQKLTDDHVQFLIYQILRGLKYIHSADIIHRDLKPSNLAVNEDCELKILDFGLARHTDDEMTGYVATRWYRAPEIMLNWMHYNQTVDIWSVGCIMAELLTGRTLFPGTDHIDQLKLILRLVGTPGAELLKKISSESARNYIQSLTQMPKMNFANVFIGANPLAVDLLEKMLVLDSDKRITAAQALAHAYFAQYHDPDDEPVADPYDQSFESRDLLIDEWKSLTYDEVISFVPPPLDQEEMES
T5 sequence (P45983 whole entry): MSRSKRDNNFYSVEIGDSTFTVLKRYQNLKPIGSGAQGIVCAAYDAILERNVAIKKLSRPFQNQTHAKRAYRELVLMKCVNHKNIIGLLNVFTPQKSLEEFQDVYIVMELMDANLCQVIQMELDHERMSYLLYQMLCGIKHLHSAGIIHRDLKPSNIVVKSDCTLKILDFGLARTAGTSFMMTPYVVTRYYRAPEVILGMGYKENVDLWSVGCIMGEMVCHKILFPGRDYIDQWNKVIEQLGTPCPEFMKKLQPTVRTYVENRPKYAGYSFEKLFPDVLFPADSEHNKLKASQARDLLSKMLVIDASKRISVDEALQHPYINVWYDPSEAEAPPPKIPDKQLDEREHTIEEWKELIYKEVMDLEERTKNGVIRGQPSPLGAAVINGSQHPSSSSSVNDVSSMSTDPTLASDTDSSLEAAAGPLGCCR
T2 sequence (P53779 whole entry, the tested form may be a part): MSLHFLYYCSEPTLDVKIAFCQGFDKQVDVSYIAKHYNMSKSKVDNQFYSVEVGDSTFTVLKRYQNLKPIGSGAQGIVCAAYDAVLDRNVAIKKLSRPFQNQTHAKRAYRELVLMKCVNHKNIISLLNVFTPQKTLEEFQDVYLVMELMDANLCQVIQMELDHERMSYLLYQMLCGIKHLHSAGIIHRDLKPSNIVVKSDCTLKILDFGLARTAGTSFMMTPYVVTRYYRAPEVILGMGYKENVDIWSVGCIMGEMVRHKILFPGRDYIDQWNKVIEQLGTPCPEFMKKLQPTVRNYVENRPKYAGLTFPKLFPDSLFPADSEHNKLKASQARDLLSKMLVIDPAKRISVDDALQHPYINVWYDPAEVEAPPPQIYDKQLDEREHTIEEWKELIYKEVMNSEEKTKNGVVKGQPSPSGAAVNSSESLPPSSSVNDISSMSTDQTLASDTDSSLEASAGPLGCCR
Sequence of Glycogen synthase kinase-3 beta (P49841 whole entry): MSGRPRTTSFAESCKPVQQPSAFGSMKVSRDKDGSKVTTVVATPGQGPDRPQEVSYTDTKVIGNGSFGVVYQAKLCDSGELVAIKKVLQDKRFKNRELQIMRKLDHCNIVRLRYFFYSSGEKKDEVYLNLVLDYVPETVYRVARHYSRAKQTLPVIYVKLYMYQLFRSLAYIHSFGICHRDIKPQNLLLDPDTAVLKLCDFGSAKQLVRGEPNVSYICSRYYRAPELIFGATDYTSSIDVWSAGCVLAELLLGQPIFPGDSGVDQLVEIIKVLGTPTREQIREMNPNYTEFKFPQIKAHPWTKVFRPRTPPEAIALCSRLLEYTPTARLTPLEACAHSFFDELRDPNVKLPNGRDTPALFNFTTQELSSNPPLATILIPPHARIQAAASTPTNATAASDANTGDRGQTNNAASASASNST
Sequence of Serine/threonine-protein kinase B-raf (P15056 whole entry): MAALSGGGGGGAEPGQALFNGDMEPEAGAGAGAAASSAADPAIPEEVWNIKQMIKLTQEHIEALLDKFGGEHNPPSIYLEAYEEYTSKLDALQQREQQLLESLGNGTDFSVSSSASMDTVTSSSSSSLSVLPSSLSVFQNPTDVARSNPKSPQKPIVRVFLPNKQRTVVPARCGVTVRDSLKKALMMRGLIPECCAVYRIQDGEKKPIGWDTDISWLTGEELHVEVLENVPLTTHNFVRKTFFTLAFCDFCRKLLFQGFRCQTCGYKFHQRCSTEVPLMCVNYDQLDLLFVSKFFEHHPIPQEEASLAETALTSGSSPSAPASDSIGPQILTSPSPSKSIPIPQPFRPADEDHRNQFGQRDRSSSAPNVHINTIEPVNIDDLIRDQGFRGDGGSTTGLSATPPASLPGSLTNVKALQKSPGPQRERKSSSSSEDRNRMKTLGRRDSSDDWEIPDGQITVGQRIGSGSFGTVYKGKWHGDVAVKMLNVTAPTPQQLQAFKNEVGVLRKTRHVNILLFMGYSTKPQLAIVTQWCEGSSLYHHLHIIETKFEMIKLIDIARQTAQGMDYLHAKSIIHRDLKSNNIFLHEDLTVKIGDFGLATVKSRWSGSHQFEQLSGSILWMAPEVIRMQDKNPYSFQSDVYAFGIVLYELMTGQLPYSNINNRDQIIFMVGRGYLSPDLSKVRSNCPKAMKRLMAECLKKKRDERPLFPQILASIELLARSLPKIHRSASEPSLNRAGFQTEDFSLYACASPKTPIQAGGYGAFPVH
Sequence of Serine/threonine-protein kinase PLK1 (P53350 whole entry): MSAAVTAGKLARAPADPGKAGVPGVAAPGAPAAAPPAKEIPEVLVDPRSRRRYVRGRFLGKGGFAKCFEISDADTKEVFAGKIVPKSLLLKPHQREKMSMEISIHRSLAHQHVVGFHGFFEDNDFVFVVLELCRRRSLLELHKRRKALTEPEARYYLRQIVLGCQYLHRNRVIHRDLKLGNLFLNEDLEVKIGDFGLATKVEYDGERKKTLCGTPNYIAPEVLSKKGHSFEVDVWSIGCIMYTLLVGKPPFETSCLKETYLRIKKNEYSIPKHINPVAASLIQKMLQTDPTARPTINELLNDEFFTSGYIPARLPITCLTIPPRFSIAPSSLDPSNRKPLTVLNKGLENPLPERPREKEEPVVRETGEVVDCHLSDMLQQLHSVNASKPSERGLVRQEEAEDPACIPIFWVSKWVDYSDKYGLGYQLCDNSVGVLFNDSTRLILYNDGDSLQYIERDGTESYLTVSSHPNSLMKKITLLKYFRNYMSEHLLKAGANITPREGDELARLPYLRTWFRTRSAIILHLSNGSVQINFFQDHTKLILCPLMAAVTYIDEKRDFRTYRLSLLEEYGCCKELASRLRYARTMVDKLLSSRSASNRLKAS
Sequence of Mitogen-activated protein kinase 1 (P28482 whole entry): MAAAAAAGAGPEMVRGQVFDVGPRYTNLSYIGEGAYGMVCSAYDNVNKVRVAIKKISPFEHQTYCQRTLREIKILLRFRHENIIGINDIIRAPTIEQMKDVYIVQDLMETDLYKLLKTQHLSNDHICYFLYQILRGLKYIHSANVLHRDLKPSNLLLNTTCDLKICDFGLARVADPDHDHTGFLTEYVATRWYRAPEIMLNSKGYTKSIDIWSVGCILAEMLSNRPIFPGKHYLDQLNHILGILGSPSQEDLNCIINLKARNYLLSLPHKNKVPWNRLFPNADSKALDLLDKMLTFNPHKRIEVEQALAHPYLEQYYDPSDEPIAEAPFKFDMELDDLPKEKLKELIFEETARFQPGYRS
Sequence of Mitogen-activated protein kinase 9 (P45984 whole entry): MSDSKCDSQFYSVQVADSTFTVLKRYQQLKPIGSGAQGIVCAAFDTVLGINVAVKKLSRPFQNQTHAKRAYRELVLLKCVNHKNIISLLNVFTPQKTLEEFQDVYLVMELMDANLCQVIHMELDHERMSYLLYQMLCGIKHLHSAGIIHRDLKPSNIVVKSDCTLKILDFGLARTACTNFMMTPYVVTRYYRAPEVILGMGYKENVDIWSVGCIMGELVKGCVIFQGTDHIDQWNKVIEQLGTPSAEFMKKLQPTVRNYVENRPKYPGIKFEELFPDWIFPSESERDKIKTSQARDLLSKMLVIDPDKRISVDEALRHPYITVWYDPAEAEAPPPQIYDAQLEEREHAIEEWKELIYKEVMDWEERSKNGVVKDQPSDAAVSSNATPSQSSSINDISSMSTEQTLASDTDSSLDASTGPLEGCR
Sequence of Mitogen-activated protein kinase kinase kinase 11 (Q16584 whole entry): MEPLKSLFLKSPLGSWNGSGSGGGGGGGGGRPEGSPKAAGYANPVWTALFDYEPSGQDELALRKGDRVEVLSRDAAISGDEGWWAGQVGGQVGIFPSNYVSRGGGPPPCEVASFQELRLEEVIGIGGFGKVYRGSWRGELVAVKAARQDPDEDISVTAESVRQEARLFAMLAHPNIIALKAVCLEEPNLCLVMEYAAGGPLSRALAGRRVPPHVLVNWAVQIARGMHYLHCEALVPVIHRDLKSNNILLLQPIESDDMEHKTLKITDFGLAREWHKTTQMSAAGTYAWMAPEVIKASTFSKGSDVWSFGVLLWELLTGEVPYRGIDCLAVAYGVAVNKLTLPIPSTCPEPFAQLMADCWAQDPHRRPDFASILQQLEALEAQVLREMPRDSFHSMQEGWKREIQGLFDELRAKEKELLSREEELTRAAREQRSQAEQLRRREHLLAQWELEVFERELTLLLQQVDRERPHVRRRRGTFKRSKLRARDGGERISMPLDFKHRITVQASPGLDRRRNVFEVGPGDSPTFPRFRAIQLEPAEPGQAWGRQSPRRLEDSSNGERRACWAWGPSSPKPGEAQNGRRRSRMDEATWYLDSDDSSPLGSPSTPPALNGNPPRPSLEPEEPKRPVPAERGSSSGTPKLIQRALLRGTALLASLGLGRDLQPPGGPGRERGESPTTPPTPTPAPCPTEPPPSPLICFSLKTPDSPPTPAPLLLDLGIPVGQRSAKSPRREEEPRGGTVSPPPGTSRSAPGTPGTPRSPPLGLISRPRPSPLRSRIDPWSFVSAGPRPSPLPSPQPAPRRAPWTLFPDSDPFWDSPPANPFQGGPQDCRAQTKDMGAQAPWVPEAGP

Compound: COc1cc2c(cc1Cl)CCN=C2c1ccc2ccccc2c1
- IC50 [1]: > 15.8 µM
- IC50 [2]: > 15.8 µM

Compound: COc1cc2c(cc1Cl)CCN=C2c1cccc(F)c1
- IC50 [1]: > 15.8 µM
- IC50 [2]: > 15.8 µM

Compound: COc1cc2c(cc1Cl)C(c1cccc(Br)c1)=NCC2
- IC50 [3]: 12.6 µM
- IC50 [2]: 0.398 µM

Compound: COc1cc2c(cc1Cl)C(c1ccc(F)cc1)=NCC2
- IC50 [3]: > 15.8 µM
- IC50 [2]: 5.01 µM

Compound: COc1cc2c(cc1Cl)CCN=C2c1ccc(Cl)c(Cl)c1
- IC50 [1]: > 15.8 µM
- IC50 [2]: 15.8 µM

Compound: COc1cc2c(cc1Cl)C(c1ccc(Cl)c(Cl)c1)=NCC2
- IC50 [4]: > 10 µM
- IC50 [5]: > 10 µM
- IC50 [6]: > 10 µM
- IC50 [7]: > 10 µM
- IC50 [3]: 7.94 µM
- IC50 [8]: > 10 µM
- IC50 [9]: 0.0501 µM
- IC50 [10]: 0.794 µM
- IC50 [11]: > 10 µM
- IC50 [12]: > 100 µM
- IC50 [13]: > 10 µM
- IC50 [14]: > 10 µM
- IC50 [15]: > 10 µM
- IC50 [2]: 0.316 µM
- IC50 [16]: 100 µM
- IC50 [17]: > 10 µM
- IC50 [18]: > 10 µM

Compound: COc1cc2c(cc1Cl)C(c1cccc(F)c1)=NCC2
- IC50 [3]: > 15.8 µM
- IC50 [2]: 3.98 µM

Compound: COc1cc2c(cc1OC)C(c1ccccc1)=NCC2
- IC50 [1]: > 15.8 µM
- IC50 [2]: > 15.8 µM

Compound: COc1cccc(C2=NCCc3cc(OC)c(OC)cc32)c1
- IC50 [3]: > 15.8 µM
- IC50 [2]: > 15.8 µM

Compound: COc1cc2c(cc1OC)C(c1ccc(Cl)cc1)=NCC2
- IC50 [3]: > 15.8 µM
- IC50 [2]: > 15.8 µM

Compound: COc1cc2c(cc1Cl)C(Cc1ccccc1)=NCC2
- IC50 [3]: > 15.8 µM
- IC50 [2]: > 15.8 µM

Compound: COc1cc2c(cc1OC)C(c1ccc(Cl)c(Cl)c1)=NCC2
- IC50 [3]: > 15.8 µM
- IC50 [2]: 6.31 µM

Compound: COc1cc2c(cc1OC)C(c1cccc(Cl)c1)=NCC2
- IC50 [19]: 10 µM

Compound: COc1cc2c(cc1Cl)CCN=C2c1ccc(F)cc1
- IC50 [1]: > 15.8 µM
- IC50 [2]: > 15.8 µM

Compound: O=C(NC1CCNCC1)c1cccc(-c2n[nH]c3cc(Nc4ccccc4Cl)ccc23)c1
- IC50 [20]: 0.0794 µM
- IC50 [19]: 0.00126 µM
- IC50 [21]: 0.00398 µM

Compound: COc1cc2c(cc1Cl)C(c1cccc(Cl)c1F)=NCC2
- IC50 [3]: 12.6 µM
- IC50 [2]: 0.631 µM

Compound: COc1cc2c(cc1Cl)CCN=C2c1cccc(Cl)c1
- IC50 [1]: > 15.8 µM
- IC50 [2]: 12.6 µM

Compound: CCC1=NCCc2cc(OC)c(Cl)cc21
- IC50 [3]: > 15.8 µM
- IC50 [2]: > 15.8 µM

Compound: COc1cc2c(cc1Cl)CCN=C2c1cccc(Br)c1
- IC50 [1]: > 15.8 µM
- IC50 [2]: 10 µM

Compound: COc1cc2c(cc1Cl)C(c1cccc(C)c1)=NCC2
- IC50 [3]: > 15.8 µM
- IC50 [2]: 2 µM

Compound: Clc1cccc(C2=NCCc3ccccc32)c1
- IC50 [3]: > 15.8 µM
- IC50 [2]: > 15.8 µM

Compound: COc1cc2c(cc1Cl)C(c1cccc(Cl)c1)=NCC2
- IC50 [4]: > 10 µM
- IC50 [5]: > 10 µM
- IC50 [6]: > 10 µM
- IC50 [7]: > 10 µM
- IC50 [3]: 7.94 µM
- IC50 [8]: > 10 µM
- IC50 [9]: 0.126 µM
- IC50 [10]: 1.26 µM
- IC50 [11]: > 10 µM
- IC50 [12]: > 100 µM
- IC50 [13]: > 10 µM
- IC50 [14]: > 10 µM
- IC50 [15]: > 10 µM
- IC50 [22]: > 10 µM
- IC50 [2]: 0.251 µM
- IC50 [16]: > 100 µM
- IC50 [17]: > 10 µM
- IC50 [18]: > 10 µM

Compound: COc1cc2c(cc1Cl)C(c1ccc3ccccc3c1)=NCC2
- IC50 [3]: > 15.8 µM
- IC50 [2]: 1 µM

Compound: COc1cc2c(cc1Cl)C(c1ccccc1)=NCC2
- IC50 [3]: > 15.8 µM
- IC50 [2]: 6.31 µM

Compound: COc1cc2c(cc1Cl)CCN=C2c1ccccc1
- IC50 [1]: > 15.8 µM
- IC50 [2]: > 15.8 µM
